PubChem BioAssay (NCI)
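Method: 48-hour compound exposure of cells in 96-well plates, five concentrations, linear interpolation of endpoints. TGI: concentration producing complete growth inhibition.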

Key:
Experiment in all cases: NCI anticancer screen, dose series, 48 h
786-0 renal = test system: 786-0 renal
A498 renal = test system: A498 renal
A549 NSCLC = test system: A549 NSCLC
ACHN renal = test system: ACHN renal
BT-549 breast = test system: BT-549 breast
CAKI-1 renal = test system: CAKI-1 renal
CCRF-CEM leukemia = test system: CCRF-CEM leukemia
DU-145 prostate = test system: DU-145 prostate
EKVX NSCLC = test system: EKVX NSCLC
HCC-2998 colon = test system: HCC-2998 colon
HCT-116 colon = test system: HCT-116 colon
HCT-15 colon = test system: HCT-15 colon
HL-60(TB) leukemia = test system: HL-60(TB) leukemia
HOP-62 NSCLC = test system: HOP-62 NSCLC
HOP-92 NSCLC = test system: HOP-92 NSCLC
HS 578T breast = test system: HS 578T breast
HT29 colon = test system: HT29 colon
IGROV1 ovarian = test system: IGROV1 ovarian
K-562 leukemia = test system: K-562 leukemia
KM12 colon = test system: KM12 colon
LOX IMVI melanoma = test system: LOX IMVI melanoma
M14 melanoma = test system: M14 melanoma
MALME-3M melanoma = test system: MALME-3M melanoma
MCF7 breast = test system: MCF7 breast
MDA-MB-231 breast = test system: MDA-MB-231 breast
MDA-MB-435 = test system: MDA-MB-435
MDA-N = test system: MDA-N
MOLT-4 leukemia = test system: MOLT-4 leukemia
NCI-H226 lung = test system: NCI-H226 lung
NCI-H23 lung = test system: NCI-H23 lung
NCI-H460 lung = test system: NCI-H460 lung
NCI/ADR-RES ovarian = test system: NCI/ADR-RES ovarian
OVCAR-3 ovarian = test system: OVCAR-3 ovarian
OVCAR-4 ovarian = test system: OVCAR-4 ovarian
OVCAR-5 ovarian = test system: OVCAR-5 ovarian
OVCAR-8 ovarian = test system: OVCAR-8 ovarian
PC-3 prostate = test system: PC-3 prostate
RPMI-8226 leukemia = test system: RPMI-8226 leukemia
RXF 393 renal = test system: RXF 393 renal
SF-268 CNS = test system: SF-268 CNS
SF-295 CNS = test system: SF-295 CNS
SF-539 CNS = test system: SF-539 CNS
SK-MEL-2 melanoma = test system: SK-MEL-2 melanoma
SK-MEL-28 melanoma = test system: SK-MEL-28 melanoma
SK-MEL-5 melanoma = test system: SK-MEL-5 melanoma
SK-OV-3 ovarian = test system: SK-OV-3 ovarian
SN12C renal = test system: SN12C renal
SNB-19 CNS = test system: SNB-19 CNS
SNB-75 CNS = test system: SNB-75 CNS
SR leukemia = test system: SR leukemia
SW-620 colon = test system: SW-620 colon
T-47D breast = test system: T-47D breast
TK-10 renal = test system: TK-10 renal
U251 CNS = test system: U251 CNS
UACC-257 melanoma = test system: UACC-257 melanoma
UACC-62 melanoma = test system: UACC-62 melanoma
UO-31 renal = test system: UO-31 renal
COLO 205 colon = test system: COLO 205 colon
NCI-H522 lung = test system: NCI-H522 lung

Cc1cc(S(=O)(=O)n2ccnc2Oc2cccc(Cl)c2)c(SSc2cc(Cl)c(C)cc2S(=O)(=O)n2ccnc2Oc2cccc(Cl)c2)cc1Cl
TGI (786-0 renal): > 70 µM | TGI (A498 renal): 84.5 µM | TGI (A549 NSCLC): > 100 µM | TGI (ACHN renal): > 32 µM | TGI (BT-549 breast): 43 µM | TGI (CAKI-1 renal): > 43.5 µM | TGI (CCRF-CEM leukemia): 10.7 µM | TGI (DU-145 prostate): > 78.7 µM | TGI (EKVX NSCLC): > 100 µM | TGI (HCC-2998 colon): 53 µM | TGI (HCT-116 colon): > 60.7 µM | TGI (HCT-15 colon): > 100 µM | TGI (HL-60(TB) leukemia): 20.9 µM | TGI (HOP-62 NSCLC): 38.7 µM | TGI (HOP-92 NSCLC): > 100 µM | TGI (HS 578T breast): 21.2 µM | TGI (HT29 colon): 48.5 µM | TGI (IGROV1 ovarian): > 100 µM | TGI (K-562 leukemia): > 100 µM | TGI (KM12 colon): > 100 µM | TGI (LOX IMVI melanoma): > 100 µM | TGI (M14 melanoma): > 42 µM | TGI (MALME-3M melanoma): 41.1 µM | TGI (MCF7 breast): > 29.3 µM | TGI (MDA-MB-231 breast): > 51.3 µM | TGI (MDA-MB-435): 48.3 µM | TGI (MDA-N): > 58.3 µM | TGI (MOLT-4 leukemia): 35 µM | TGI (NCI-H226 lung): 30.7 µM | TGI (NCI-H23 lung): > 100 µM | TGI (NCI-H460 lung): > 71.1 µM | TGI (NCI/ADR-RES ovarian): 21.8 µM | TGI (OVCAR-3 ovarian): > 100 µM | TGI (OVCAR-4 ovarian): > 100 µM | TGI (OVCAR-5 ovarian): > 100 µM | TGI (OVCAR-8 ovarian): > 41.8 µM | TGI (PC-3 prostate): > 78.5 µM | TGI (RPMI-8226 leukemia): > 38.7 µM | TGI (RXF 393 renal): 24.2 µM | TGI (SF-268 CNS): > 100 µM | TGI (SF-295 CNS): > 46.9 µM | TGI (SF-539 CNS): 37 µM | TGI (SK-MEL-2 melanoma): 26.9 µM | TGI (SK-MEL-28 melanoma): > 100 µM | TGI (SK-MEL-5 melanoma): 23 µM | TGI (SK-OV-3 ovarian): > 92.5 µM | TGI (SN12C renal): > 100 µM | TGI (SNB-19 CNS): > 100 µM | TGI (SNB-75 CNS): > 91.1 µM | TGI (SR leukemia): > 100 µM | TGI (SW-620 colon): > 100 µM | TGI (T-47D breast): > 67.2 µM | TGI (TK-10 renal): > 100 µM | TGI (U251 CNS): 12.4 µM | TGI (UACC-257 melanoma): > 100 µM | TGI (UACC-62 melanoma): > 53.2 µM | TGI (UO-31 renal): > 100 µM

Cc1cc(O)c(C=O)c2c1C(=O)Oc1c(CO)c(O)c3c(c1O2)C(O)OC3=O (stereo not given)
TGI (786-0 renal): > 100 µM | TGI (A498 renal): > 100 µM | TGI (A549 NSCLC): > 100 µM | TGI (ACHN renal): > 100 µM | TGI (BT-549 breast): > 100 µM | TGI (CAKI-1 renal): > 100 µM | TGI (CCRF-CEM leukemia): > 100 µM | TGI (COLO 205 colon): > 100 µM | TGI (DU-145 prostate): > 100 µM | TGI (EKVX NSCLC): > 100 µM | TGI (HCC-2998 colon): > 100 µM | TGI (HCT-116 colon): > 100 µM | TGI (HCT-15 colon): > 100 µM | TGI (HL-60(TB) leukemia): 79.2 µM | TGI (HOP-62 NSCLC): > 100 µM | TGI (HOP-92 NSCLC): > 100 µM | TGI (HS 578T breast): > 100 µM | TGI (HT29 colon): > 100 µM | TGI (IGROV1 ovarian): > 100 µM | TGI (KM12 colon): > 100 µM | TGI (LOX IMVI melanoma): > 100 µM | TGI (M14 melanoma): > 100 µM | TGI (MALME-3M melanoma): > 100 µM | TGI (MCF7 breast): > 100 µM | TGI (MDA-MB-231 breast): > 100 µM | TGI (MDA-MB-435): > 100 µM | TGI (MDA-N): > 100 µM | TGI (MOLT-4 leukemia): 94.1 µM | TGI (NCI-H226 lung): > 100 µM | TGI (NCI-H23 lung): > 100 µM | TGI (NCI-H522 lung): > 100 µM | TGI (NCI/ADR-RES ovarian): > 100 µM | TGI (OVCAR-3 ovarian): > 100 µM | TGI (OVCAR-4 ovarian): > 100 µM | TGI (OVCAR-5 ovarian): > 100 µM | TGI (OVCAR-8 ovarian): > 100 µM | TGI (PC-3 prostate): > 100 µM | TGI (RPMI-8226 leukemia): 54.5 µM | TGI (RXF 393 renal): > 100 µM | TGI (SF-268 CNS): > 100 µM | TGI (SF-295 CNS): > 100 µM | TGI (SF-539 CNS): > 100 µM | TGI (SK-MEL-2 melanoma): > 100 µM | TGI (SK-MEL-28 melanoma): > 100 µM | TGI (SK-MEL-5 melanoma): > 100 µM | TGI (SK-OV-3 ovarian): > 100 µM | TGI (SN12C renal): > 100 µM | TGI (SNB-19 CNS): > 100 µM | TGI (SNB-75 CNS): > 100 µM | TGI (SR leukemia): 66.2 µM | TGI (SW-620 colon): > 100 µM | TGI (T-47D breast): > 100 µM | TGI (TK-10 renal): > 100 µM | TGI (U251 CNS): > 100 µM | TGI (UACC-257 melanoma): > 100 µM | TGI (UACC-62 melanoma): > 100 µM | TGI (UO-31 renal): > 100 µM

Cc1ccc([N+](=O)[O-])cc1S(=O)(=O)Nc1ccc(C2=NN(C(=O)c3ccccc3)C(c3ccccc3)C2)cc1 (stereo not given)
TGI (786-0 renal): 48.2 µM | TGI (A498 renal): 51.3 µM | TGI (A549 NSCLC): > 100 µM | TGI (ACHN renal): 93.6 µM | TGI (BT-549 breast): 96.9 µM | TGI (CAKI-1 renal): > 100 µM | TGI (CCRF-CEM leukemia): > 100 µM | TGI (COLO 205 colon): 33.9 µM | TGI (DU-145 prostate): > 100 µM | TGI (EKVX NSCLC): 59.7 µM | TGI (HCT-116 colon): > 100 µM | TGI (HCT-15 colon): > 100 µM | TGI (HL-60(TB) leukemia): 81.8 µM | TGI (HOP-62 NSCLC): 72 µM | TGI (HOP-92 NSCLC): 62.9 µM | TGI (HS 578T breast): > 100 µM | TGI (HT29 colon): > 100 µM | TGI (IGROV1 ovarian): 95.2 µM | TGI (K-562 leukemia): > 100 µM | TGI (KM12 colon): > 100 µM | TGI (LOX IMVI melanoma): > 100 µM | TGI (M14 melanoma): > 100 µM | TGI (MALME-3M melanoma): 66.6 µM | TGI (MCF7 breast): 75.7 µM | TGI (MDA-MB-231 breast): 46.3 µM | TGI (MDA-MB-435): > 100 µM | TGI (MDA-N): 67.4 µM | TGI (MOLT-4 leukemia): > 100 µM | TGI (NCI-H226 lung): 72.2 µM | TGI (NCI-H23 lung): 68.2 µM | TGI (NCI-H522 lung): 58.2 µM | TGI (NCI/ADR-RES ovarian): > 100 µM | TGI (OVCAR-3 ovarian): 49 µM | TGI (OVCAR-4 ovarian): > 100 µM | TGI (OVCAR-5 ovarian): > 100 µM | TGI (OVCAR-8 ovarian): > 100 µM | TGI (PC-3 prostate): > 100 µM | TGI (RPMI-8226 leukemia): > 100 µM | TGI (RXF 393 renal): 57.3 µM | TGI (SF-268 CNS): > 100 µM | TGI (SF-295 CNS): > 100 µM | TGI (SF-539 CNS): 55.2 µM | TGI (SK-MEL-2 melanoma): 38.7 µM | TGI (SK-MEL-28 melanoma): > 100 µM | TGI (SK-MEL-5 melanoma): 30.4 µM | TGI (SK-OV-3 ovarian): 73.7 µM | TGI (SN12C renal): 63.1 µM | TGI (SNB-19 CNS): > 100 µM | TGI (SNB-75 CNS): 49.9 µM | TGI (SR leukemia): > 100 µM | TGI (SW-620 colon): > 100 µM | TGI (T-47D breast): 97.5 µM | TGI (TK-10 renal): 68.8 µM | TGI (U251 CNS): > 100 µM | TGI (UACC-257 melanoma): 64.7 µM | TGI (UO-31 renal): > 100 µM
